# Test results published in US20090062388A1, “Use of acetyl L-carnitine for the preparation of a medication for the preventive therapy for pain” (Sigma-Tau Industrie Farmaceutiche Riunite S.p.A., priority 2001, published 2009).
# How the values were obtained:
# Format in all cases: in vivo
# Male Swiss Webster mice [1] = test: Hole board test (spontaneous motility, exploratory activity); conditions: 14-day sub-chronic treatment SC 100 mg/kg BID; 5 minutes on board
# Protocol: In the hole board test, the […] movements were recorded by two separate photocell systems, which recorded both the movements on the board (spontaneous motility) and how many times the mouse put its head into the holes on the surface (exploratory activity).
# The mice were placed on the board one at a time and left free to explore both the surface and the holes for 5 minutes.
# Male Swiss Webster mice [2] = test: Sleep induction test with pentobarbital
# Protocol: In the sleep induction test with pentobarbital, the duration of the loss of the […] reflex was measured in the mice treated with pentobarbital (60 mg/kg IP).
# Male Swiss Webster mice [3] = test: Kainic acid-induced hyperalgesia (hot plate)
# Protocol: According to this test, the hyperalgesia—determined in the mice through the hot plate test—is induced by a solution of kainic acid (20 mg/kg, IP).
# Male Swiss Webster mice [4] = test: Hyperalgesia induced by NMDA (hot plate)
# Protocol: This test was carried out in compliance with what described in the rats by Davies and Inturrisi in J. Pharmacol. Exp. Ther., 289: 1048-1053, 1999, but was applied to the mice by us.
# According to this test, the hyperalgesia, assessed through the hot plate test, is to be induced by intrathecal administration of an NMDA solution (1.64 μg/mouse; administered around 15 minutes after the last administration of acetyl L-carnitine).
# The reduction in the pain threshold, which reaches its peak 15 minutes after the injection of NMDA, disappears within 30 minutes from the administration.
# [5] = pentobarbital 60 mg/kg IP, Acetyl L-carnitine 100 mg/kg BID SC 7 days, Piracetam 30 mg/kg IP
smiles,measurement,setting,value
"CC(=O)O[C@H](CC(=O)[O-])C[N+](C)(C)C [Acetyl L-carnitine, acetyl L-carnitine]",EXPLORATORY ACTIVITY No. of movements,Male Swiss Webster mice [1],52.3 ± 6.5
same,LOCOMOTOR ACTIVITY No. of explorations,Male Swiss Webster mice [1],24.0 ± 5.1
same,effect on pentobarbital sleep duration and induction times,"Male Swiss Webster mice [2]; 100 mg/kg BID SC for 7 days, pentobarbital 60 mg/kg IP 24 hours after end of treatments",neither affected the duration of sleep nor the induction times
same,SLEEP Duration,Male Swiss Webster mice [2]; [5],23.5 ± 3.4 min
same,SLEEP Induction time,Male Swiss Webster mice [2]; [5],3.3 ± 2.1 min
same,reversal of kainic acid-induced hyperalgesia,Male Swiss Webster mice [3]; 7-day repeated administration started 48 hours after kainic acid 20 mg/kg IP (FIG. 6),capable to revert the hyperalgesia
same,reversal of kainic acid-induced hyperalgesia,Male Swiss Webster mice [3]; single administration (FIG. 6bis),no anti-hyperalgesic effect
same,effect on reduction in pain threshold induced by NMDA,"Male Swiss Webster mice [4]; 30 mg/kg BID, IP or SC for 7 days (FIG. 7)",not found to be active
same,effect on reduction in pain threshold induced by NMDA,"Male Swiss Webster mice [4]; 100 mg/kg BID, SC or IP for 7 days, NMDA 1.64 μg/mouse intrathecal (FIG. 7)",anti-nociceptive effect
